From patent EP0946548B1, “NOVEL HETEROCYCLIC SUBSTITUTED PYRROLIDINE AMIDE DERIVATIVES” (Aventis Pharmaceuticals Inc., priority 1996, dated 1998)
Where a name gives a salt, the structure may show the parent alone.

How the values were obtained:
[1] = Metabolic stability: disappearance of test compound in guinea pig liver S9 supernatant; assay type: in vitro ADME; conditions: initial concentration 10µM, 37°C
Procedure: (§1) One skilled in the art can determine the metabolic stability for the compounds of the present invention by determining the rate of disappearance of the test comopund in vitro in liver extracts. Metabolic stability is inversely related to the rate of metabolism which can be evaluated by determining the rate of disappearance of the test compounds during the initial linear phase of this assay.
(§2) This method is carried out using either S9 or S10 liver supernatant obtained from either guinea pig or human liver. Guinea pig liver S9 can be purchased from Vitro Technologies, Baltimore, Md and human liver S9 can be purchased from IIAM, Eaton Pa. Both guinea pig and human S10 supernatant can be prepared as follows: Combine weighed liver (fresh or stored at -80°C until use) and 1.15% aqueous potassium chloride solution (10-15 mL) and homogenize using a PCU Poltron from Kinematics of Switzerland or equivalent. Combine the homogenate with 1.15% aqueous potassium chloride solution, sufficient so that 3 mL of solution (total) is used per […] of liver, and mix. Store the above homogenate on ice at all times prior to use and at -80°C for long term storage.
(§3) Prepare a stock solution of each test compound in methanol, such that 0.1 mL of the stock solution when spiked into 16 mL of incubation mixture yields an initial concentration of 10µM of the test compound. Using this method the methanol content of the final incubation mixture will not exceed 1%.
(§4) Prepare the incubation mixture by combining in an incubation beaker S9 or S10 supernatant (4 mL); an aqueous solution containing 1.1 mM NADP, […] (4 units/2 mL)(0.32 mL); and an aqueous 0.1 M dipotassium monohydrogen phosphate solution (7.58 mL). Incubate the test compound by adding 0.1 mL of the stock solution of test compound to an incubation mixture, placed in a shaking water bath at 37°C.
(§5) To determine the rate of disappearance of test compounds in this assay, remove triplicate aliquots (0.5 mL) from the incubation beaker at 1, 3, 5, 10, 15, 30, and 60 minutes. Freeze all aliquots in a hexane/dry-ice slurry to instantly deactivate the enzymes. Store at -70°C until assayed. The concentration of test compound in each aliquot is determined by HPLC after preparation and as compared to a standard concentration of test compound, such preparations and determinations are well known and appreciated in the art. The rate of disappearance can be determined from the slope of the initial linear phase of this assay by graphing the change in concentration of test compound vs. time.
(§6) Calibration standards for Compound A were prepared as follows: dissolve 10 mg of Compound A (free base) in methanol (10 mL) to give a 1 mg/mL stock solution. Use acetonitrile to dilute 1 mL of stock solution to 10 mL to give a 100 µg/mL spiking standard and serially dilute the 100µg/mL solution with acetonitrile to give spiking standards having concentrations of 50, 25, 10, 5, 2.5, and 1.0 µg/mL. Calibration standards having concentrations of 10,000; 5,000; 2,500; 1,000; 500; 250; and 100 ng/mL are prepared in duplicated by adding 20 µL of each spiking standards to 0.2 mL of control S9 supernatant. Blanks and samples each receive 20µL of acetonitrile. Calibration standards and aliquots from that assay of compound A were prepared and evaluated as follows: charge a purple sulfonic acid solid phase extraction cartridge (Varian Inc., Harbor City, Ca.) with methanol (1 mL) and an aqueous 0.5% monochloroacetic acid solution (1 mL). Dilute the 0.2 mL of calibration standard or aliquot from the incubation with aqueous 5% acetonitrile (0.5 mL) and add to the charged cartridge. Pull the sample through the cartridge using vacuum, rinse with aqueous 0.5% monochloroacetic acid solution (1 mL), aqueous 50% acetonitrile solution (50 mM potassium hydroxide) (1 mL). Elute into HPLC vial using 60% methanol, 38% water, 1% acetic acid, 1% triethylamine (0.4 mL). […]

[2] = Metabolic stability: disappearance of test compound in human liver S9 supernatant; assay type: in vitro ADME; conditions: initial concentration 10µM, 37°C
Procedure: as §1, §2, §3, §4, §5, §6

NK1 receptor = biological target: T1, NK1 receptor (Cavia porcellus, UniProt P30547); experiment: Antagonism of iodinated tachykinin binding to NK1 receptor (125I-Bolton Hunter Lys-3 labeled substance P); conditions: guinea pig lung membranes; mean of several experiments
T1 construct: evaluated in guinea pig lungs (Keystone Biologicals, Cleveland, OH); tissue Keystone Biologicals, Cleveland, OH; host or cells: guinea pig lung membranes
T1 sequence (P30547 whole entry): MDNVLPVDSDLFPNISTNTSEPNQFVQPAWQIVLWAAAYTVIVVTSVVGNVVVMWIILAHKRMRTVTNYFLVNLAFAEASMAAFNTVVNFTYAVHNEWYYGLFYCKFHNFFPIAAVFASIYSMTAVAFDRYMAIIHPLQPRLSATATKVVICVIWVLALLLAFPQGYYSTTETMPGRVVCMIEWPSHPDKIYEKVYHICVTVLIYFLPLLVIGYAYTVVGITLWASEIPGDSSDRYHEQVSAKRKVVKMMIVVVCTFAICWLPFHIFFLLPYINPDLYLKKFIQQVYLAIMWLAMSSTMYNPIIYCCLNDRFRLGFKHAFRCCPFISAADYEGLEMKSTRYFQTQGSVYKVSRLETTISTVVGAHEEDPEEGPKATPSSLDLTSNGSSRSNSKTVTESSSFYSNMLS
Procedure: (§7) One skilled in the art can determine the NK1 receptor and NK2 receptor affinity in vitro as follows. The NK1 receptor affinity of tachykinin antagonists is evaluated in guinea pig lungs (Keystone Biologicals, Cleveland, OH) and affinity for the NK2 receptor is evaluated in HSKR-1 cells (which are mouse 3T3 fibroblasts expressing the human jejunal NK2 receptor). Tissues or cells are homogenized with a Polytron in 15 volumes of 50 mM Tris-HCl buffer (pH 7.4, 4°C) and centrifuged. The pellet is resuspended in Tris-HCl buffer and is centrifuged; the pellet is washed twice by resuspension. The final pellet is resuspended at a concentration of 40 mg/ml for tissues and 20 mg/ml for cells in incubation buffer and remains at room temperature for at least 15 min prior to use. Receptor binding is initiated by addition of 250 ul membrane preparation in duplicate to 0.1 nM of the following radioligands: ^125I-Bolton Hunter Lys-3 labeled substance P and ^125iodohistidyl-1-neurokinin A; in a final volume of 500 ul of buffer containing 50 mM Tris-HCl (pH 7.4 at room temperature), 0.1% bovine serum albumin, 2 mM mangenese chloride, 40 ug/ml bacitracin, 4 µg/ml leupeptin and chymostatin, 10 µM thiorphan and various doses of the putative tachykinin antagonists. […] Filter bound radioactivity is quantitated in a gamma counter. Nonspecific binding is defined as binding in the presence of 1 µM substance P or neurokinin A. Specific binding is calculated by subtracting nonspecific binding from total binding. Competition of iodinated SP or NKA binding by test compounds or standards is expressed as a percentage of this maximum binding. […]
(§8) Tachykinin receptor binding (IC50 values) for representative compounds of the present invention are found in Table 1. Specifically, NK1 and NK2 receptor binding values were determined by the method of present Example A. These values represent the mean of several experiments. […]

[3] = biological target: T2, human jejunal NK2 receptor (Homo sapiens, UniProt P21452); experiment: Antagonism of iodinated tachykinin binding to NK2 receptor (125iodohistidyl-1-neurokinin A) in HSKR-1 cells; conditions: HSKR-1 cells (mouse 3T3 fibroblasts expressing the human jejunal NK2 receptor); mean of several experiments
T2 construct: expressed in transfected cells; host or cells: HSKR-1 cells (mouse 3T3 fibroblasts)
T2 sequence (P21452 1-398): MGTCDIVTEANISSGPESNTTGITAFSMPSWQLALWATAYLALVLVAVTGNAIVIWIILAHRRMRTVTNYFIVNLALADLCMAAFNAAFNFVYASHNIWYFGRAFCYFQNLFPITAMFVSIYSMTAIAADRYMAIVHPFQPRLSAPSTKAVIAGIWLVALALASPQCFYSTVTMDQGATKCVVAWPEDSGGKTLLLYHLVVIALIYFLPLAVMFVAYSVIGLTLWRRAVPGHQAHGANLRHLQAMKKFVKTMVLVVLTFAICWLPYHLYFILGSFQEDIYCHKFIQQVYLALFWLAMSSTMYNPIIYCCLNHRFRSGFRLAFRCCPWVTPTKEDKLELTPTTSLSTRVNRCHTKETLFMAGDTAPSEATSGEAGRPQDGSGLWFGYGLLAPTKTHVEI
Procedure: as §7, §8

Structure (SMILES)	Metabolic Stability in Guinea Pig Liver S9, concentration ([1]; Time 1 min)	Metabolic Stability in Guinea Pig Liver S9, concentration ([1]; Time 3 min)	Metabolic Stability in Guinea Pig Liver S9, concentration ([1]; Time 5 min)	Metabolic Stability in Guinea Pig Liver S9, concentration ([1]; Time 10 min)	Metabolic Stability in Guinea Pig Liver S9, concentration ([1]; Time 15 min)	Metabolic Stability in Guinea Pig Liver S9, concentration ([1]; Time 30 min)	Metabolic Stability in Guinea Pig Liver S9, concentration ([1]; Time 60 min)	Metabolic Stability in Human Liver S9, concentration ([2]; Time 1 min)	Metabolic Stability in Human Liver S9, concentration ([2]; Time 3 min)	Metabolic Stability in Human Liver S9, concentration ([2]; Time 5 min)	Metabolic Stability in Human Liver S9, concentration ([2]; Time 10 min)	Metabolic Stability in Human Liver S9, concentration ([2]; Time 15 min)	Metabolic Stability in Human Liver S9, concentration ([2]; Time 30 min)	Metabolic Stability in Human Liver S9, concentration ([2]; Time 60 min)	IC50 (NK1 receptor)	IC50 [3]
COc1cc(C(=O)N2CCC(CCN3CCC(C(N)=O)(c4ccccc4)CC3)(c3ccc(Cl)c(Cl)c3)C2)cc(OC)c1OC.Cl (single isomer, unassigned; (+)) [Compound C, (+)-1-(2-(3-(3,4-dichloro-phenyl)-1-(3,4,5-trimethoxy-benzoyl)-pyrrolidin-3-yl)-ethyl)-4-phenyl-piperidine-4-carboxylic acid amide hydrochloride, reference compound]	6.3 µg/mL	6.0 µg/mL	5.3 µg/mL	4.8 µg/mL	4.0 µg/mL	3.8 µg/mL	3.5 µg/mL	6.2 µg/mL	5.6 µg/mL	5.9 µg/mL	5.2 µg/mL	4.5 µg/mL	3.2 µg/mL	2.5 µg/mL	3.04 nM	8.17 nM
COc1ccc(-n2cnnn2)cc1C(=O)N1CC[C@](CCN2CCC(C(N)=O)(c3ccccc3)CC2)(c2ccc(Cl)c(Cl)c2)C1 [Compound A, (R)-1-(2-methoxy-5-(1H-tetrazol-1-yl)benzoyl)-3-(2-(4-phenyl-4-carboxamidopiperidin-1-yl)ethyl)-3-(3,4-dichlorophenyl)pyrrolidine hydrochloric acid salt]	6.1 µg/mL	6.6 µg/mL	6.3 µg/mL	6.1 µg/mL	6.1 µg/mL	6.3 µg/mL	6.9 µg/mL	6.6 µg/mL	6.5 µg/mL	6.6 µg/mL	6.7 µg/mL	6.6 µg/mL	6.8 µg/mL	6.9 µg/mL	2.79 nM	16.3 nM
COc1ccc(-n2cnnn2)cc1C(=O)N1CC[C@](CCN2CCC(C(N)=O)(c3cccnc3)CC2)(c2ccc(Cl)c(Cl)c2)C1 [Compound B, (R)-1-(2-methoxy-5-(1H-tetrazol-1-yl)benzoyl)-3-(2-(4-(pyrid-3-yl)-4-carboxamidopiperidin-1-yl)ethyl)-3-(3,4-dichlorophenyl)pyrrolidine hydrochloric acid salt]	6.2 µg/mL	6.4 µg/mL	6.4 µg/mL	6.3 µg/mL	6.3 µg/mL	6.3 µg/mL	6.2 µg/mL	6.4 µg/mL	6.6 µg/mL	6.1 µg/mL	6.1 µg/mL	5.7 µg/mL	5.3 µg/mL	4.4 µg/mL	3.15 nM	232 nM
